{"source": "patent US20180098538A1", "about": "“CONFIGURATIONAL STEREOISOMER OF DIFETHIALONE, COMPOSITION AND RODENTICIDAL BAIT COMPRISING SAME, AND PROCESS FOR CONTROLLING TARGET RODENT PESTS” (priority 2015, published 2018)", "format": "in vivo", "conditions": "rats which consumed a bait comprising 15 ppm of difethialone of the prior art", "protocol": "For comparative purposes, the difethialone content retained in the liver of rats which consumed a bait comprising 15 ppm of difethialone of the prior art is about 110 μg/gram.", "data": [{"molecule": "O=c1sc2ccccc2c(O)c1C1CC(c2ccc(-c3ccc(Br)cc3)cc2)Cc2ccccc21", "note": "(stereo not shown) [difethialone, 3-(4′-bromobiphenyl-4-yl)-1-(4-hydroxythiocoumarin-3-yl)-1,2,3,4-tetrahydronaphthalene]", "values": [{"measurement": "Difethialone content retained in the liver", "value": "about 110 μg/gram"}]}]}
